This is an account of results in patent publication US20090252754A1, “Vaccines containing the hiv tat protein as an adjuvant for the enhancement of cytotoxic t-cell responses” (priority 2003, published 2009).

Experiment [1] has as its system proteasome subunits (α2, LMP2, LMP7, MECL1) in Jurkat cells. Description: Western blot of proteasome subunits in Jurkat cells expressing or treated with Tat, Tat mutants or Tat peptides. The class given is cell-based, human. Conditions: Jurkat cells treated for 24 h with 0.1 μg/ml. As to the method: Jurkat T cells expressing Tat or mutated Tat (referred to as Tat22, wherein a Cys at position 22 is mutated) have previously been described (1). Cells were cultured in a medium supplemented with 800 μg/ml neomycin (Sigma, St. Louise, […].).
Cells were lysed with glass beads as previously described (4). Supernatants were ultracentrifuged for 1 h at 100,000 g and loaded into an affinity column containing a matrix derivatised with the MCP21 mAb specific for the α2 subunit of the proteasome (Affinity, Exeter, UK). Proteasomes were eluted with 25 mM Tris-HCl pH 7.5 containing 2 M NaCl, and 0.5 ml fractions were collected. Homogeneity of the eluted material was confirmed by analysis of an aliquot by SDS 12% PAGE and Coomassie blue staining of the gel. Fractions containing proteasomes were combined and dialysed against 25 mM Tris-HCl pH 7.5. Protein concentration was determined using the BCA method (Pierce Chemical, Rockford, Ill.).
Equal amounts of proteins, or equal amounts of purified proteasomes, were loaded on a 12% SDS-PAGE and electro-blotted onto Protran nitrocellulose membranes (Schleicher & Schuell, Keene, Hampshire, USA). Blots were probed with Abs specific for α2, LMP2 LMP7, MECL1, and PA28α subunits (Affinity), and developed by enhanced chemi-luminescence (ECL, Amersham Pharmacia Biotech, Uppsala, SW).

The test system of the next experiment is HIV-1 Env peptide pools. Description: Env-specific IFNγ Elispot on splenocytes of immunized mice. The class given is in vivo, BALB/c mice. On the procedure: C57BL/6 mice (H-2^b) (Harlan Nossan, Udine, I) were immunized subcutaneously, in a single site in the back, with 25 μg of ovalbumin (Sigma) alone or in combination with native monomeric biologically active Tat protein (5 and 10 μg, respectively) in Freund's adjuvant (CFA for the first injection, and IFA for subsequent injections). BALB/c mice (H-2^d) (Harlan, Udine, Italy) were immunized subcutaneously, in a single site in the back, with 5 μg of HIV-1 Gag or Env proteins alone or in combination with 5 μg of native monomeric biologically active Tat protein or with the mutant Tatcys22 protein in Freund's adjuvant or in Alum. Each group was composed of 5 animals. Immunogens were given subcutaneously in 100 μl, at days 1, 14 and 28. Mice were sacrificed 10 days after the last boost (day 38). […]
Splenocytes were purified from spleens squeezed on filters (Cell Strainer, 70 μm, Nylon, Becton Dickinson). […] Cellular responses were also measured after in vitro re-stimulation. […]
Elispot (IFN-γ) was carried out using a commercially available kit provided by Becton Dickinson (murine IFNgamma ELISPOT Set; #551083), according to manufacturer's instructions. […] The spots were read using an Elispot reader (Elivis, Germany). The results are expressed as neat number of spot forming units (SFU)/10^6 cells: [mean number SFU of peptide treated wells minus mean number SFU of the negative control]. […]

Experiment [2] deals with ovalbumin epitopes SII, KVV, CFD on EL4 cells. Description: Ova-specific CTL responses in vaccinated mice (cytotoxicity against peptide-pulsed EL4 cells). Conditions: fresh splenocytes; 25 μg ovalbumin alone or with 5 and 10 μg Tat, s.c., Freund's adjuvant. The class given is in vivo, C57BL/6 mice. As to the method: Seven- to eight-week old female C57BL/6 mice (H-2^b) (Nossan) were injected with 25 μg ovalbumin (Sigma, St. Louis, Mo.) alone or in combination with native monomeric biologically active Tat protein (5 and 10 μg) and resuspended in degassed sterile PBS in Freund's adjuvant (CFA for the first injection, and IFA for subsequent injections). Control mice were injected with PBS alone in Freund's adjuvant. Samples (100 μl) were given by subcutaneous (s.c.) injection in one site in the back. Each experimental group consisted of five mice, and the experiment was repeated twice. Mice were boosted at day 24. Two weeks after the last injection, animals were anaesthetised i.p., as described above, and sacrificed to collect spleens. Mononuclear cells from individual spleens were purified as described above, pooled and tested in cytotoxic assay against peptide-pulsed EL4 cells.
C57BL/6 mice (H-2^b) (Harlan Nossan, Udine, I) were immunized subcutaneously, in a single site in the back, with 25 μg of ovalbumin (Sigma) alone or in combination with native monomeric biologically active Tat protein (5 and 10 μg, respectively) in Freund's adjuvant (CFA for the first injection, and IFA for subsequent injections). BALB/c mice (H-2^d) (Harlan, Udine, Italy) were immunized subcutaneously, in a single site in the back, with 5 μg of HIV-1 Gag or Env proteins alone or in combination with 5 μg of native monomeric biologically active Tat protein or with the mutant Tatcys22 protein in Freund's adjuvant or in Alum. Each group was composed of 5 animals. Immunogens were given subcutaneously in 100 μl, at days 1, 14 and 28. Mice were sacrificed 10 days after the last boost (day 38). During the course of the experiments, animals were controlled twice a week at the site of injection and for their general conditions (such as liveliness, food intake, vitality, weight, motility, sheen of hair). No signs of local nor systemic adverse reactions were ever observed in mice receiving the immunogens as compared to control or untreated mice. Animal use was according to European and institutional guidelines.

Consider “1-38: peptide covering amino acids 1-38 of the wild-type sequence of Tat (MEPVDPRLEPWKHPGSQPKTACTNCYCKKCCFHCQVCF; UniProt P04608 1-38, looked up, fragment)”, for which the “LMP2 expression in total cell lysates” value in experiment [1] is “no discernable effect”. The same measure, in the same setting: the result for “21-58: peptide covering amino acids 21-58 of the wild-type sequence of Tat (ACTNCYCKKCCFHCQVCFITKALGISYGRKKRRQRRRA; UniProt P04608 21-58, looked up, fragment)” reads “no discernable effect”; that for “47-86: peptide of amino acids 47-86 of wild-type Tat (SEQ ID NO 285) (YGRKKRRQRRRPPQGSQTHQVSLSKQPTSQSRGDPTGPKE; Human immunodeficiency virus)”, “induced down-regulation”.

Turning to “Env: HIV-1 Env protein (gp120 SF162, SEQ ID NO 267) from NIH AIDS Reagent Program”, the “response of fresh splenocytes to Env-derived peptide pools” value in the experiment with HIV-1 Env peptide pools (fresh splenocytes, IFN-γ Elispot (data not shown)) is on record as “did not respond”. Besides, the “number of Env-derived peptide pools responded to” value in the experiment on HIV-1 Env peptide pools (vaccinated BALB/c mice) was 8. For the substance ovalbumin, in experiment [2], the “recognition of EL4 target cells pulsed with cryptic CFD epitope” value was “did not recognise”, the “recognition of EL4 target cells pulsed with immunodominant SII epitope” value was “recognised” and the “recognition of EL4 target cells pulsed with subdominant KVV epitope” value is “did not recognise”.
